Results as given in patent publication US11484529B2, “Desmethylanethole trithione derivatives for the treatment of diseases linked to mitochondrial reactive oxygen species (ROS) production” (OP2 Drugs, priority 2017, dated 2022).

Assays:
[1] = tested on: carcinoma cell lines A549 and H460; test: Cytotoxicity, sulforhodamine B (SRB) assay; assay type: cell-based, human; details: 48 hours
Description: Human non-small cell carcinoma cell line H460 and A549 were obtained from ATCC. Cells were cultured in growth medium consisting of DMEM (GIBCO), 10% FBS (GIBCO) and 100 units of penicillin and 100 μg/mL streptomycin (GIBCO). The cells were maintained in either 75-cm^2 T-flasks or 175-cm^2 T-flasks (BD Biosciences) in an incubator (model 3100 series, Forma Scientific, Marietta, Ohio) controlled at 37° C., 95% humidity, and 5% CO2. Cell culture medium was refreshed every other day. Every 2 to 3 days, H460 and A549 cultures were detached from the flasks using a 0.25% trypsin solution (Gibco) and subcultured. All cultures were maintained at 80-90% confluence at the time of subculture.
Cytotoxicity screening was carried out by sulforhodamine B colorimetric assay. A549 and H460 cells (2·10^3) were seeded in a 96-well plate, and after adherence, cells were incubated with 5 to 500 μM of AOL or AOX or control dimethyl sulfoxide (DMSO). Cytotoxicity was evaluated after 48 hours treatment sulforhodamine B (SRB) assay, according to Vichai (Vichai et al., 2006. Nat. Protoc. 1(3):1112-6).

[2] = tested on: isolated rat heart mitochondria; test: Mitochondrial ATP synthesis (phosphorylation rate, pH electrode); assay type: biochemical
Description: Male Wistar rats (250-325 g; obtained from Janvier Labs, Le Genest-Saint-Isle, France) were killed by stunning and cervical dislocation, and the heart was quickly removed and washed in cold isolation medium containing 100 mM sucrose, 180 mM KCl, 50 mM Tris, 5 mM MgCl2, 10 mM EDTA, and 0.1% (w/v) defatted BSA (pH 7.2).
Isolation of heart mitochondria was performed in a cold chamber. Before homogenization, hearts (about 1.5 g) were minced with scissors and treated for 5 minutes in 5 mL of the same medium supplemented with protease (2 mg of bacterial proteinase type XXIV per mL of isolation buffer) with stirring. The tissue suspension was poured into a 50-mL glass Potter homogenizer, diluted with 20 mL of isolation buffer, then homogenized for 3 minutes using a motorized Teflon pestle. The homogenate was filtered through bolting cloth (Sefar Nitex) to remove debris, and centrifuged at 8,000 g for 10 minutes. The resulting pellet was rinsed with 5 mL of isolation buffer, resuspended in 25 ml of the same buffer, then subjected to low speed centrifugation (400 g) for 8 minutes. […] Protein concentration was determined by the Bradford method (Sigma, kit # B6916) using BSA as standard. […]
ATP synthesis was measured under the same conditions using a high sensitivity pH electrode (Metrohm) as previously described (Gouspillou et al., 2014. Aging Cell. 13(1):39-48).

[3] = molecular target: T1, site IIIQO (Rattus norvegicus, UniProt P00159+P20788); test: Mitochondrial ROS/H2O2 production (Amplex Red/HRP) after rotenone, antimycin A, myxothiazol; assay type: biochemical; details: AOL 5 to 80 μM
T1 construct: from tissue; host or cells: mitochondria isolated from rat heart
Description: Rates of ROS/H2O2 production from heart mitochondria were assessed through the oxidation of the colorless, non-fluorescent indicator Amplex Red in the presence of exogenous horseradish peroxidase (HRP, EC 1.11.1.7, Sigma). H2O2 reacts with Amplex Red in a 1:1 stoichiometry, yielding the fluorescent compound resorufin (excitation: 560 nm; emission: 585 nm) which is stable once formed. Fluorescence was measured continuously with a spectro-fluorometer equipped with temperature control and stirring (SAFAS Xenius, Monaco). Isolated mitochondria (0.1 mg/mL) were incubated in the same experimental buffer than previously, supplemented with 15 μM Amplex Red and 10 μg/mL HRP. Glutamate (5 mM)/malate (2.5 mM) together with succinate (5 mM) were used as complex I and complex II substrates, respectively. Experiments were conducted under non-phosphorylating conditions in the presence of 15 μM atractyloside, i.e., under state IV conditions where mitochondrial membrane is maximal. […]
Rates of ROS/H2O2 production from heart mitochondria were assessed through the oxidation of the colorless, non-fluorescent indicator Amplex Red in the presence of exogenous horseradish peroxidase (HRP, EC 1.11.1.7, Sigma). […] Fluorescence was measured continuously with a spectro-fluorometer equipped with temperature control and stirring (SAFAS Xenius, Monaco). […]

T1 sequence (P00159 whole entry): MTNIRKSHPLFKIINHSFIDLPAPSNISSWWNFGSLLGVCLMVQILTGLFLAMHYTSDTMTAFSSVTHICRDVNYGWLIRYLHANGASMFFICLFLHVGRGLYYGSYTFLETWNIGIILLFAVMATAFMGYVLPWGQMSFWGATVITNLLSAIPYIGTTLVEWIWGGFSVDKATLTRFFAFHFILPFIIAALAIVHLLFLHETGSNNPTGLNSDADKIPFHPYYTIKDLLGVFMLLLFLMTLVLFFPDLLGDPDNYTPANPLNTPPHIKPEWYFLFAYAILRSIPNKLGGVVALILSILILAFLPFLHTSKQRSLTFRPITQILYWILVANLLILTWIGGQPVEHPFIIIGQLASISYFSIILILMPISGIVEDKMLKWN
T1 sequence (P20788 79-274 limits assumed): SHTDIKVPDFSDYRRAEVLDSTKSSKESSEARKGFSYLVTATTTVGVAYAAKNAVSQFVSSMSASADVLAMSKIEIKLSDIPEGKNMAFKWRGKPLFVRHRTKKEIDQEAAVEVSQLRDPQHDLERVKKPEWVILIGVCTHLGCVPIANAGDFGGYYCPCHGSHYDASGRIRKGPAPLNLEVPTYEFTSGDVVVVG
T1 sequence (P20788 1-78 partner limits assumed): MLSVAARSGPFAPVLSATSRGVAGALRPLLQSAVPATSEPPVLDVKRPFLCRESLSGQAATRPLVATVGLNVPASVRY
T1 sequence (Q68FY0 35-480 partner): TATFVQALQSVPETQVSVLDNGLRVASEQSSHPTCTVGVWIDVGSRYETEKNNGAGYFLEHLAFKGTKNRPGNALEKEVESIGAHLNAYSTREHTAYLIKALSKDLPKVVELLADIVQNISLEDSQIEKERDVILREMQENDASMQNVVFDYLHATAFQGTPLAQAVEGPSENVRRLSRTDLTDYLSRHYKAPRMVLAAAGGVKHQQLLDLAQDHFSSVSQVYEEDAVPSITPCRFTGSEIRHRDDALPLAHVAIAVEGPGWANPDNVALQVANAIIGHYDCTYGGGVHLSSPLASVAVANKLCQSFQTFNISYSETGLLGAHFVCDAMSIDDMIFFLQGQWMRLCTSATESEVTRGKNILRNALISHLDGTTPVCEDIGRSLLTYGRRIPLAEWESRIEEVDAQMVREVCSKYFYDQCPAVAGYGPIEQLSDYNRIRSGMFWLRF
T1 sequence (P32551 15-452 partner): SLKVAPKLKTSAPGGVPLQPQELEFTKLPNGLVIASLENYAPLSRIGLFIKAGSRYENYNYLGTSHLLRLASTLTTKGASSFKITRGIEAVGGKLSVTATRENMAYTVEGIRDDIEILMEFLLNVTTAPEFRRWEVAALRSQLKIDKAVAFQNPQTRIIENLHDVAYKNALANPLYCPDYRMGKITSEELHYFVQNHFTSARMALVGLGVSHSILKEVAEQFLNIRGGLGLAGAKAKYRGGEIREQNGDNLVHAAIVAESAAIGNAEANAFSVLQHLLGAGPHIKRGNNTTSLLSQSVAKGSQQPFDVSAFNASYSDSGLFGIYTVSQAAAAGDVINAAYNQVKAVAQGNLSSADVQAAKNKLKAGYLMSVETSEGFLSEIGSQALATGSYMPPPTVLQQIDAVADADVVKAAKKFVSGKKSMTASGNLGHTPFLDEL

`Oc1ccc(-c2cc(=S)ss2)cc1` [AOX, 5-(4-hydroxyphenyl)-3H-1,2-dithiole-3-thione] was tested, and the “concentrations without significant toxicity” value [1] was “lower than 100 μM”, the IC50 ([1]; Homo sapiens, 0 to 500 μM, read-out: IC50 for high dose toxicity) was 134.8 ± 0.3 µM and the “concentration that completely abolishes phosphorylation rate” value [2] was 60 µM. The “concentrations that do not modify ATP synthesis” value [2] was “lower than 20 μM”.

With `COc1ccc(-c2cc(=S)ss2)cc1` [AOL, 5-(4-methoxyphenyl)-3H-1,2-dithiole-3-thione] the “effect on ROS/H2O2 production under the other conditions” value [3] was “no statistical differences were observed”.
